Experimental data reported in article PMC8174488, “4-Arylthiosemicarbazide derivatives as a new class of tyrosinase inhibitors and anti-Toxoplasma gondii agents” (Journal of Enzyme Inhibition and Medicinal Chemistry, 2021).
Several values for one entry are separate records, joined by “and”; a condition that tells them apart may be missing. Identical values can stand only once. Like-named read-outs stand apart in the source and are kept apart here. Values belong to the compound of their own block, whether it stands above or below them.

Assays:
[1] = system: Toxoplasma gondii; settings: Toxoplasma gondii proliferation; cited from earlier work
[2] = system: Hs27 cell line; test: Cytotoxicity assay (MTT) on human fibroblast Hs27 cells; format: cell-based
Method: (§1) Cell viability assay was performed according to international standards (ISO 10993–5:2009(E)), using tetrazolium salt (MTT, Sigma-Aldrich) and mouse fibroblasts L929 cells. Culture medium RPMI 1640, without phenol red (Biowest, Nuaille, France) supplemented with 10% FBS, 2 mM L-glutamine (Sigma-Aldrich), 100 I.U./mL penicillin, 100 µg/mL streptomycin were used. Briefly, 1 × 10^4/well of L929 cells were placed in 96-well plates and incubated for 24 h at 37 °C and 10% CO2. Afterwards, the old culture medium was replaced with 100 µL of the compound, drug or inhibitor, diluted in culture medium, and the cells treated for 24 h. Additionally, cells were treated with 0.03–4.0% concentration of DMSO as the solvent (data not shown). Then, 50 µL of 1 mg/mL of MTT solution in RPMI 1640 without phenol red was added to each well and incubated for 2 h at 37 °C and 10% CO2. Next, cell culture medium was aspirated carefully and 150 µL of DMSO was added to each well, and the plates were gently mixed. Then, 25 µL 0.1 M glycine buffer (pH 10.5) (Sigma-Aldrich) was added. The optical density at 570 nm using a multi-mode microplate reader SpectraMax® i3 (Syngen, Taipei City, Taiwan) was recorded. The results were expressed as a percentage of viability compared to untreated cells. All experiments were performed in triplicate. Cytotoxicity assay using human fibroblast Hs27 cells was also performed as described above (included in Supplementary Material).

[3] = system: T. gondii RH strain; test: Antiparasitic assay: T. gondii RH proliferation in Hs27 cells, [3H]uracil incorporation; format: cell-based, Toxoplasma gondii; settings: for IC50: Toxoplasma gondii, HS27; for SR (selectivity ratio): ratio of CC30 (L929) to IC50Tg
[4] = system: L929 cells; test: Cell viability assay (MTT, ISO 10993-5) on L929 mouse fibroblasts; format: cell-based; settings: 24 h, concentration for 30% inhibition of cell proliferation
Source text: First, we evaluated the cytotoxic effects of 1b–9b, which is necessary prior to measuring anti-Toxoplasma and Tyr inhibition in order to exclude cytotoxic compounds. […] Cytotoxicity was estimated using mouse fibroblast (L929) cells line via MTT assay, according to the international standards ISO 10993–5:2009(E). […] Therefore, the obtained results were expressed as CC30, which was defined as the highest concentration of the compound that causes 30% damage of cells and was considered according to ISO as non-toxic.
The L929 mouse fibroblast (ATTC® CCL-1™, Manassas, VA) was routinely maintained in RPMI 1640 media (R8758, Sigma-Aldrich, Suffolk, UK), supplemented with 10% foetal bovine serum (Foetal Bovine Serum, ATCC® 30–2020™), 100 I.U./mL penicillin and 100 µg/mL streptomycin (Penicillin-Streptomycin Solution ATCC® 30–2300™). Cells were trypsinised (Trypsin-EDTA Solution, 1X ATCC® 30–2101™) twice a week and seeded at a density of 1 × 10^6 per T25 cell culture flask and incubated at 37 °C and 10% CO2 to achieve a confluent monolayer.
as §1

[5] = target: T1, Tyr from mushrooms (Agaricus bisporus, UniProt C7FF04); test: Inhibition of tyrosinase activity assay (screening at 25 µM); format: biochemical, mushroom; settings: for inhibition at 25 µM: read-out: Tyrosinase inhibition, at 25 µM compound, L-tyrosine substrate, 10 U Tyr, 30 min; for Tyrosinase inhibition: at 25 µM compound, L-tyrosine substrate, 10 U Tyr, 30 min
Method: In our study, we used Tyr from mushrooms (T3824, Sigma) for all experiments. All compound dilutions, L-tyrosine a Tyr substrate, and Tyr were prepared in 50 mM phosphate buffer (pH 6.5). […] 100% Tyr activity we used for the sample without addition compound/inhibitor. […] The average results from three experiments are shown.

[6] = system: T. gondii tachyzoites RH-GFP strain; test: Influence of compounds during Toxoplasma growth, assay B (compounds present 24 h after penetration); format: cell-based, Toxoplasma gondii; settings: 3 h infection without compound, then compound at IC50Tg for 24 h, Hs27 cells, vs untreated cells
[7] = system: T. gondii tachyzoites RH-GFP strain; test: Influence of compounds during Toxoplasma growth, assay A (compounds present only during penetration); format: cell-based, Toxoplasma gondii; settings: compound at IC50Tg for 3 h during penetration, then 24 h free medium, Hs27 cells, vs untreated cells
[8] = target: T1, Tyr from mushrooms; test: Kinetic analysis of the inhibition of tyrosinase (Lineweaver-Burk, Dixon, [L-tyrosine]/V vs [I] plots); format: biochemical, mushroom; settings: for character of inhibition: Lineweaver–Burk plots; for Ki: Dixon plots; for IC50: plots of [L-tyrosine]/V vs [I]
Method: Therefore, these compounds were subsequently subjected to detailed kinetic studies to evaluate inhibition parameters. […] Dixon plots (Figure 7) were used in evaluating the KI values, while the plots of [L-tyrosine]/V vs. [I] (Figure 8), were employed to determine IC50Tyr[50]. [I] represents the concentration of the inhibitor. Rates were monitored spectrophotometrically by detecting changes in absorbance at 492 nm.
Solutions containing 80 µL of 0.625, 1.25, or 2.5 mM L-tyrosine and 50 µL of 20, 100, or 200 µM inhibitor were added to a 96-well plate. Then, solution containing 70 µL of Tyr (10 U) was added and the initial rate of dopachrome formation was determined through detecting the increase in absorbance at the wavelength of 492 nm (Δ492/min). […] In order to determine the inhibition constants KI the Dixon plots were constructed, whereas the plots of [L-tyrosine]/V vs. inhibitor concentration [I] were used for IC50Tyr evaluation. The results from three experiments are shown.

[9] = system: T. gondii RH strain; set-up: method as in PMID 30744161, PMID 31022878; settings: 50% inhibition of T. gondii proliferation in vitro; reported previously, listed for comparison; cited from earlier work
[10] = system: L929 cells; settings: cited from earlier work

T1 sequence (G1K3P4 entry or part of it): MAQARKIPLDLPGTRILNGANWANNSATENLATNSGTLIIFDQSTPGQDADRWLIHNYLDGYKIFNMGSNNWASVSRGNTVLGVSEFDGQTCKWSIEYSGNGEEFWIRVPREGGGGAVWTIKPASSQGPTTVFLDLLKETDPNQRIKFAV
T1 sequence (C7FF04 1-392): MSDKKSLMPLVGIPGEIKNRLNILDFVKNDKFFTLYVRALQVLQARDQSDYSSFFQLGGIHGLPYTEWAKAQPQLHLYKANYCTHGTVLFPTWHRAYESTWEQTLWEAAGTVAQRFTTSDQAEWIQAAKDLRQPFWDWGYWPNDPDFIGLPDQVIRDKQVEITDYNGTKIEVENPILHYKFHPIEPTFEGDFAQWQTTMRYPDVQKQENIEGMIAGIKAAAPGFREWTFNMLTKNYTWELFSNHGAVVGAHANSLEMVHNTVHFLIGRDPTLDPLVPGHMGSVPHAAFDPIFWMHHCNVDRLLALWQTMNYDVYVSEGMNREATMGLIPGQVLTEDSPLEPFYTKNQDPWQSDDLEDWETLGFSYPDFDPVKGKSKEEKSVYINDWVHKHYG

Compound: Nc1ccc(S(=O)(=O)Nc2ncccn2)cc1 [sulfadiazine]
- IC50 [1]: ~8500 µM

- melting point: 178 to 180 °C
Compound: O=C(NNC(=S)Nc1cc(F)ccc1F)C1CCCC1 [Compound 9b, 1-Cyclopentanoyl-4–(2,5-difluorophenyl)thiosemicarbazide]
- CC30 ([2]; Hs27 cell line, MTT): > 1000 µM
- IC50 [3]: 321 µM
- SR (selectivity ratio) [3]: 2.68
- CC30 [4]: 860.66 µM

Compound: O=C(NNC(=S)Nc1ccc([N+](=O)[O-])cc1)C1CCCC1 [Compound 2b, 1-Cyclopentanoyl-4–(4-nitrophenyl)thiosemicarbazide]
- inhibition at 25 µM [5]: 45.6 ± 2.8%
- number of tachyzoites per PV [6]: significant reduction
- percentage of infected cells [6]: not observable
- CC30 ([2]; Hs27 cell line, MTT): 405.09 µM
- IC50 [3]: 144 µM
- SR (selectivity ratio) [3]: 2.63
- CC30 [4]: 378.39 µM and 378.4 µM
- number of infected cells (infection index) [7]: significant reduction
- number of tachyzoites per PV [7]: significant reduction
- character of inhibition [8]: mixed character of inhibition
- melting point: 170 to 172 °C

Compound: Cc1nc[nH]c1C(=O)NNC(=S)Nc1cc(F)ccc1F [Compound 9a]
- CC30 [2]: 612.48 µM
- IC50 [9]: 172 µM
- CC30 [10]: 509.11 µM

Compound: Cc1nc[nH]c1C(=O)NNC(=S)Nc1cccc(I)c1 [Compound 6a]
- Tyrosinase inhibition [5]: 48.9 ± 3.0%
- number of tachyzoites per PV [6]: significant reduction
- percentage of infected cells [6]: not observable
- CC30 [2]: 209.45 µM
- IC50 [9]: 25.7 µM
- number of infected cells (infection index) [7]: significant reduction
- number of tachyzoites per PV [7]: significant reduction
- Ki [8]: 12.4 µM
- character of inhibition [8]: mixed character of inhibition
- IC50 [8]: 37.4 µM

Compound: CCc1nc(N)nc(N)c1-c1ccc(Cl)cc1 [Pyrimethamine (PYR), Pyrimethamine, reference compound]
- IC50 [3]: 11.5 µM
- SR (selectivity ratio) [3]: 15.85
- CC30 [4]: 181.97 µM

- melting point: 182 to 184 °C
Compound: O=C(NNC(=S)Nc1ccccc1I)C1CCCC1 [Compound 5b, 1-Cyclopentanoyl-4–(2-iodophenyl)thiosemicarbazide]
- CC30 ([2]; Hs27 cell line, MTT): 369.69 µM
- IC50 [3]: 128 µM
- SR (selectivity ratio) [3]: 2.60
- CC30 [4]: 333.25 µM

Compound: O=C(NNC(=S)Nc1cccc(I)c1)C1CCCC1 [Compound 6b, 1-Cyclopentanoyl-4–(3-iodophenyl)thiosemicarbazide]
- inhibition at 25 µM [5]: 43.9 ± 3.4%
- number of tachyzoites per PV [6]: significant reduction
- percentage of infected cells [6]: not observable
- CC30 ([2]; Hs27 cell line, MTT): 135.87 µM
- IC50 [3]: 54.5 µM
- SR (selectivity ratio) [3]: 2.16
- CC30 [4]: 117.68 µM
- number of infected cells (infection index) [7]: significant reduction
- number of tachyzoites per PV [7]: significant reduction
- character of inhibition [8]: mixed character of inhibition
- melting point: 173 to 175 °C

Compound: COc1ccccc1NC(=S)NNC(=O)c1[nH]cnc1C [Compound 7a]
- CC30 [2]: 498.12 µM
- IC50 [9]: 108 µM
- CC30 [10]: 452.06 µM

Compound: Cc1ccc(NC(=S)NNC(=O)c2[nH]cnc2C)cc1 [Compound 8a]
- CC30 [2]: 421.89 µM
- IC50 [9]: 199 µM
- CC30 [10]: 361.73 µM

- melting point: 178 to 180 °C
Compound: O=C(NNC(=S)Nc1ccccc1Cl)C1CCCC1 [Compound 3b, 4–(2-Chlorophenyl)-1-cyclopentanoylthiosemicarbazide]
- CC30 ([2]; Hs27 cell line, MTT): 512.31 µM
- IC50 [3]: 368 µM
- SR (selectivity ratio) [3]: 1.51
- CC30 [4]: 554.73 µM

Compound: Cc1nc[nH]c1C(=O)NNC(=S)Nc1cccc([N+](=O)[O-])c1 [Compound 1a]
- CC30 [2]: 479.22 µM
- IC50 [9]: 46.1 µM
- CC30 [10]: 440.95 µM

- melting point: 176 to 178 °C
Compound: COc1ccccc1NC(=S)NNC(=O)C1CCCC1 [Compound 7b, 1-Cyclopentanoyl-4–(2-methoxyphenyl)thiosemicarbazide]
- CC30 ([2]; Hs27 cell line, MTT): > 1000 µM
- IC50 [3]: 327 µM
- SR (selectivity ratio) [3]: 2.71
- CC30 [4]: 886.29 µM

- melting point: 175 to 177 °C
Compound: Cc1ccc(NC(=S)NNC(=O)C2CCCC2)cc1 [Compound 8b, 1-Cyclopentanoyl-4–(4-methylphenyl)thiosemicarbazide]
- CC30 ([2]; Hs27 cell line, MTT): 445.10 µM
- IC50 [3]: 181 µM
- SR (selectivity ratio) [3]: 2.55
- CC30 [4]: 463.37 µM

Compound: O=c1cc(CO)occ1O [Kojic acid (KA), Kojic acid, reference compound]
- number of tachyzoites per PV [6]: significant reduction
- percentage of infected cells [6]: not observable
- CC30 ([2]; Hs27 cell line, MTT): > 2500 µM
- IC50 [3]: 501 µM
- CC30 [4]: 1558.28 µM
- CC30 ([4]; listed as KA): 1558.0 µM
- number of tachyzoites per PV [7]: significant reduction

Compound: Cc1nc[nH]c1C(=O)NNC(=S)Nc1ccccc1Cl [Compound 3a]
- CC30 [2]: 502.21 µM
- IC50 [9]: 115 µM
- CC30 [10]: 462.12 µM

- melting point: 134 to 136 °C
Compound: O=C(NNC(=S)Nc1cccc([N+](=O)[O-])c1)C1CCCC1 [Compound 1b, 1-Cyclopentanoyl-4–(3-nitrophenyl)thiosemicarbazide]
- CC30 ([2]; Hs27 cell line, MTT): 603.98 µM
- IC50 [3]: 180 µM
- SR (selectivity ratio) [3]: 3.43
- CC30 [4]: 616.52 µM

Compound: Cc1nc[nH]c1C(=O)NNC(=S)Nc1ccccc1I [Compound 5a]
- CC30 [2]: 278.72 µM
- IC50 [9]: 50.6 µM
- CC30 [10]: 253.17 µM

- melting point: 179 to 181 °C
Compound: O=C(NNC(=S)Nc1ccccc1Br)C1CCCC1 [Compound 4b, 4–(2-Bromophenyl)-1-cyclopentanoylthiosemicarbazide]
- CC30 ([2]; Hs27 cell line, MTT): > 1000 µM
- IC50 [3]: 218 µM
- SR (selectivity ratio) [3]: 3.70
- CC30 [4]: 806.60 µM

Compound: Cc1nc[nH]c1C(=O)NNC(=S)Nc1ccccc1Br [Compound 4a]
- CC30 [2]: 728.41 µM
- IC50 [9]: 78.1 µM
- CC30 [10]: 579.61 µM

Compound: Cc1nc[nH]c1C(=O)NNC(=S)Nc1ccc([N+](=O)[O-])cc1 [Compound 2a]
- Tyrosinase inhibition [5]: 46.4 ± 3.6%
- number of tachyzoites per PV [6]: significant reduction
- percentage of infected cells [6]: not observable
- CC30 [2]: 697.67 µM
- IC50 [9]: 67.5 µM
- number of infected cells (infection index) [7]: significant reduction
- number of tachyzoites per PV [7]: significant reduction
- Ki [8]: 9.35 µM
- character of inhibition [8]: mixed character of inhibition
- IC50 [8]: 38.3 µM
